pIC50: −log10 of the molar value.
What was measured:
Format in all cases: cell-based
ERα = target: T1, ERα (Homo sapiens, UniProt P03372); experiment: Protein degradation assay: ERα in MCF-7 cells via western blot; settings: 6 h; for ERα Protein Degradation 1 nM: 1 nM compound; for ERα Protein Degradation 10 nM: 10 nM compound; for ERα Protein Degradation 100 nM: 100 nM compound
T1 construct: degrading an ERα in MCF-7 cells via a western blot; endogenous in cells; host or cells: MCF-7
T1 sequence (P03372 1-595): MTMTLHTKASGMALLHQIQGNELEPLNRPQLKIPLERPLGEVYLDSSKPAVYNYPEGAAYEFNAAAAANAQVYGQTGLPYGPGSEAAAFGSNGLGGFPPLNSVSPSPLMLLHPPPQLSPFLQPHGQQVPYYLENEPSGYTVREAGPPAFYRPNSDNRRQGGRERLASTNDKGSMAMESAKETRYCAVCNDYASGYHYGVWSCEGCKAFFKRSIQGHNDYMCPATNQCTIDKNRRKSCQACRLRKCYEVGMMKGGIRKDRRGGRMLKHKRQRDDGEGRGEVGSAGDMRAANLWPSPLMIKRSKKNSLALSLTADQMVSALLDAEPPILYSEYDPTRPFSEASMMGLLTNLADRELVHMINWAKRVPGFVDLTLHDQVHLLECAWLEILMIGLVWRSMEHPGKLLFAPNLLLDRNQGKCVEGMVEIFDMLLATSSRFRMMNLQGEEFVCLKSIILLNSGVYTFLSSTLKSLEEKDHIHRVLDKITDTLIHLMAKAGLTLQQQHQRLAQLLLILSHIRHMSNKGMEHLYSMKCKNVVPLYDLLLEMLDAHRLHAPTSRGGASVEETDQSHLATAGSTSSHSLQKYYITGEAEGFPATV
How it was run: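 MCF-7 cells in MEM/10% FBS with insulin, seeded 300,000/well, treated 6 h at set concentrations (e.g., 1 nM–1 μM). Whole-cell lysates immunoblotted for ERα with GAPDH loading control, chemiluminescent detection; percentage degradation reported in binned categories (≥50%, 25–50%, 10–25%, <10%).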

T47D cells = experiment: Cell viability assay ([…]-GLO, 6-day treatment); settings: Homo sapiens, 144 h, 6 days, CTG, read-out: Inhibition of Cancerous Cells IC50 T47D
How it was run: (§1)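 MCF7 (MEM) and T47D (RPMI with insulin), both with 10% FBS, at 1,000 cells/well, treated with a 10-point compound dose series for 6 days, with medium and compound refreshed once. Viability read by CellTiter-Glo luminescence.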

MCF7 cells = experiment: Cell viability assay ([…]-GLO, 6-day treatment); settings: Homo sapiens, MCF7, 144 h; MCF-7 cells, 6 days, CTG; read-out: Inhibition of Cancerous Cells IC50 MCF-7
How it was run: as §1

| pIC50 (T47D cells) | pIC50 (MCF7 cells) | SMILES | ERα Protein Degradation 1 nM (ERα) | ERα Protein Degradation 10 nM (ERα) | ERα Protein Degradation 100 nM (ERα) |
| --- | --- | --- | --- | --- | --- |
| 11.00 | 9.60 | Cn1nc(C2CCC(=O)NC2=O)c2ccc(OCC(=O)N3CCN(CCCCOc4ccc([C@@H]5c6ccc(O)cc6CC[C@@H]5c5ccccc5)cc4)CC3)cc21 (stereo partly drawn) [Compound B2, 3-(6-(2-(4-(4-(4-((1R,2S)-6-hydroxy-2-phenyl-1,2,3,4-tetrahydronaphthalen-1-yl)phenoxy)butyl)piperazin-1-yl)-2-oxoethoxy)-1-methyl-1H-indazol-3-yl)piperidine-2,6-dione] | B (a percentage degradation value of less than 50% and no less than 25%) | B (a percentage degradation value of less than 50% and no less than 25%) | C (a percentage degradation value of less than 25% and no less than 10%) |
| 9.77 | 9.42 | Cc1c(-c2ccc(O)cc2)n(Cc2ccc(N3CCC(CN4CCN(c5ccc6c(c5)CN(C5CCC(=O)NC5=O)C6=O)CC4)CC3)cc2)c2ccc(O)cc12 (centres unmarked) [Compound E4, 3-(5-(4-((1-(4-((5-hydroxy-2-(4-hydroxyphenyl)-3-methyl-1H-indol-1-yl)-methyl)phenyl)piperidin-4-yl)methyl)piperazin-1-yl)-1-oxoisoindolin-2-yl)piperidine-2,6-dione] | B (a percentage degradation value of less than 50% and no less than 25%) | B (a percentage degradation value of less than 50% and no less than 25%) | C (a percentage degradation value of less than 25% and no less than 10%) |
| 9.03 | 8.24 | CN(C(=O)CN1CCN(CC2CCN(c3ccc([C@@H]4c5ccc(O)cc5CC[C@@H]4c4ccccc4)cc3)CC2)CC1)c1cccc(NC2CCC(=O)NC2=O)c1 (stereo partly drawn) [Compound B20, N-(3-((2,6-Dioxopiperidin-3-yl)amino)phenyl)-2-(4-((1-(4-((1R,2S)-6-hydroxy-2-phenyl-1,2,3,4-tetrahydronaphthalen-1-yl)phenyl)piperidin-4-yl)methyl)piperazin-1-yl)-N-methylacetamide] | B (a percentage degradation value of less than 50% and no less than 25%) | C (a percentage degradation value of less than 25% and no less than 10%) | D (a percentage degradation value of less than 10%) |
| 9.21 | 9.14 | O=C1CCC(N2Cc3c(cc(F)cc3C3CCN(CCCCCCOc4ccc([C@@H]5c6ccc(O)cc6CC[C@@H]5c5ccccc5)cc4)CC3)C2=O)C(=O)N1 (stereo partly drawn) [Compound A2, 3-(6-Fluoro-4-(1-(6-(4-((1R,2S)-6-hydroxy-2-phenyl-1,2,3,4-tetrahydro-naphthalen-1-yl)phenoxy)hexyl)piperidin-4-yl)-1-oxoisoindolin-2-yl)piperidine-2,6-dione] | D (a percentage degradation value of less than 10%) | D (a percentage degradation value of less than 10%) | D (a percentage degradation value of less than 10%) |
| 10.70 | 10.05 | Cc1c(-c2ccc(O)cc2)n(Cc2ccc(OCCCCNCc3ccc(OCc4scc5c4CN(C4CCC(=O)NC4=O)C5=O)cc3)cc2)c2ccc(O)cc12 (centres unmarked) [Compound E5, 3-(1-((4-(((4-(4-((5-hydroxy-2-(4-hydroxyphenyl)-3-methyl-1H-indol-1-yl)-methyl)phenoxy)butyl)amino)methyl)phenoxy)methyl)-4-oxo-4H-thieno[3,4-c]pyrrol-5(6H)-yl)-piperidine-2,6-dione] | D (a percentage degradation value of less than 10%) | D (a percentage degradation value of less than 10%) | D (a percentage degradation value of less than 10%) |
| 9.12 | 8.80 | O=C1CCN(c2ccc(OCC(=O)N3CCN(CCCCOc4ccc([C@@H]5c6ccc(O)cc6CC[C@@H]5c5ccccc5)cc4)CC3)cc2)C(=O)N1 [Compound B10, 1-(4-(2-(4-(4-(4-((1R,2S)-6-hydroxy-2-phenyl-1,2,3,4-tetrahydronaphthalen-1-yl)phenoxy)butyl)piperazin-1-yl)-2-oxoethoxy)phenyl)dihydropyrimidine-2,4(1H,3H)-dione] | D (a percentage degradation value of less than 10%) | D (a percentage degradation value of less than 10%) | D (a percentage degradation value of less than 10%) |
| 9.19 | 8.96 | Cc1c(-c2ccc(O)cc2)n(Cc2ccc(OCCCCN3CCN(C(=O)COc4cccc5c(C6CCC(=O)NC6=O)nn(C)c45)CC3)cc2)c2ccc(O)cc12 (centres unmarked) [Compound E7, 3-(7-(2-(4-(4-(4-((5-Hydroxy-2-(4-hydroxyphenyl)-3-methyl-1H-indol-1-yl)-methyl)phenoxy)butyl)piperazin-1-yl)-2-oxoethoxy)-1-methyl-1H-indazol-3-yl)piperidine-2,6-dione] | B (a percentage degradation value of less than 50% and no less than 25%) | A (a percentage degradation value of no less than 50%) | A (a percentage degradation value of no less than 50%) |
| 9.36 | 9.70 | O=C1CCC(N2Cc3c(cc(F)cc3C3CCN(CC4CCN(c5ccc([C@@H]6c7ccc(O)cc7CC[C@@H]6c6ccccc6)cc5)CC4)CC3)C2=O)C(=O)N1 (stereo partly drawn) [Compound A3, 3-(6-Fluoro-4-(1-((1-(4-((1R,2S)-6-hydroxy-2-phenyl-1,2,3,4-tetrahydro-naphthalen-1-yl)phenyl)piperidin-4-yl)methyl)piperidin-4-yl)-1-oxoisoindolin-2-yl)piperidine-2,6-dione] | D (a percentage degradation value of less than 10%) | D (a percentage degradation value of less than 10%) | D (a percentage degradation value of less than 10%) |
| 9.33 | 8.40 | O=C1CCC(N2Cc3cc(C4CCN(CC5CCN(c6ccc([C@@H]7c8ccc(O)cc8CC[C@@H]7c7ccccc7)cc6)CC5)CC4)c(F)cc3C2=O)C(=O)N1 (stereo partly drawn) [Compound A6, 3-(6-fluoro-5-(1-((1-(4-((1R,2S)-6-hydroxy-2-phenyl-1,2,3,4-tetrahydro-naphthalen-1-yl)phenyl)piperidin-4-yl)methyl)piperidin-4-yl)-1-oxoisoindolin-2-yl)piperidine-2,6-dione] | B (a percentage degradation value of less than 50% and no less than 25%) | B (a percentage degradation value of less than 50% and no less than 25%) | D (a percentage degradation value of less than 10%) |
| 9.02 | 8.60 | O=C1CCC(Nc2cccc(NC(=O)CN3CCN(CC4CCN(c5ccc([C@@H]6c7ccc(O)cc7CC[C@@H]6c6ccccc6)cc5)CC4)CC3)c2)C(=O)N1 (stereo partly drawn) [Compound B19, N-(3-((2,6-dioxopiperidin-3-yl)amino)phenyl)-2-(4-((1-(4-((1R,2S)-6-hydroxy-2-phenyl-1,2,3,4-tetrahydronaphthalen-1-yl)phenyl)piperidin-4-yl)methyl)piperazin-1-yl)-acetamide] | D (a percentage degradation value of less than 10%) | D (a percentage degradation value of less than 10%) | D (a percentage degradation value of less than 10%) |
